Read-outs that look alike come from different tables or passages of the source. Blank lines part the entries; values can stand above or below the molecule they belong to.
How the values were obtained:
[1] = molecular target: T1, BiP NBD (Homo sapiens, UniProt P11021); assay: Global kinetic fit (MCMC) of four NMR data sets (E1+E2, E1 only, E2 only, no recycling): functional cycle kinetic parameters; assay type: biochemical; set-up: His6 (N, cleaved yes); made in house; host or cells: E. coli BL21-(DE3)-Lemo, pET28a vector
Excerpt: It comprises 5 different states that are connected by […] reaction equations of first and second order. We consider ATP hydrolysis an irreversible reaction without backreaction. The other pathways are reversible dissociation/association reactions, arbitrarily labeled 1–5. The microscopic equations (elementary reactions) for these 11 reactions are given by:1 NBD^ATPkcat→NBD^ADP⋅Pi 2 NBD^ATPkoff1⇌kon1NBD^apo+ATP 3 NBD^ADPkoff2⇌kon2NBD^apo+ADP 4 NBD^Pikoff3⇌kon3NBD^apo+Pi 5 NBD^ADP⋅Pikoff4⇌kon4NBD^ADP+Pi 6 NBD^ADP⋅Pikoff5⇌kon5NBD^Pi+ADP With the forward and backward kinetic rate constants connected by thermodynamic equilibrium dissociation constants given by7 koffi/koni=KDifori=1,…,5 For each of the 5 states, a differential equation describing the conservation of mass can be derived:8 d/dtNBD^apo=+koff1NBD^ATP+koff2NBD^ADP+koff3NBD^Pi−kon1NBD^apoATP−kon2NBD^apoADP−kon3NBD^apoPi 9 d/dt[NBD^ATP]=+kon1NBD^apoATP−koff1NBD^ATP−kcatNBD^ATP 10 d/dtNBD^ADP⋅Pi=+kcatNBD^ATP+kon4NBD^ADPPi+kon5NBD^PiADP−koff4NBD^ADP⋅Pi−koff5NBD^ADP⋅Pi 11 d/dtNBD^ADP=+koff4NBD^ADP⋅Pi+kon2NBD^apoADP−koff2NBD^ADP−kon4NBD^ADPPi 12 d/dtNBD^Pi=+koff5NBD^ADP⋅Pi+kon3NBD^apoPi−koff3NBD^Pi−kon5NBD^PiADP Furthermore, we have the total amount13 NBD^apo+NBD^ATP+NBD^ADP+NBD^ADP⋅Pi+NBD^Pi=NBD0 These equations can be used for numerical fitting of steady-state and non-steady-state experimental data.
The experimental data of the BiP NBD in-cyclo experiments were fitted using standard reaction kinetics. Free variables were the kon and koff rates for the five reversible reaction and the catalytic rate constant (kcat) for the irreversible ATP hydrolysis step (See theory section). The initial values for kcat , koff2 , koff4 and koff5 were set to the value determined experimentally with in-cyclo experiment. The initial value for koff3 was taken from the EXSY experiment and the initial range for koff1 and KD1 were taken from the literature. […] The prior distributions were defined based on the average state occupancy resolved from the in-cyclo experiment: tNBD·ADP, tNBD, tNBD·ADP·Pi and tNBD·Pi. Numerical integration of the corresponding differential equations for the reaction scheme (described in Fig. 2a) was performed using a custom Python module (Kinetic).
To fully determine all kinetic parameters, the data fitting procedure was conducted as a global fit of four independent experimental datasets: (i) the in-cyclo experiment with ATP regeneration and phosphate removal, (ii) ATP regeneration only, (iii) single batch experiments starting from pure ATP with the phosphate removal system, and (iv) single batch experiments starting from pure ATP.
Fitting of the functional cycle kinetic parameters. a-d, Global fit of the experimental data presented in the manuscript E1 +E2 (a), E1 (b), E2 (c), no recycling system (d). Data points are shown as circles NBD·ADP (blue), NBD·ADP·PI (dark blue) and NBD·ATP (red) (left) and pyruvate (grey), glucose-1-P (lavender), ATP (red) and ADP (blue) (right). The fit of the data is shown as lines in the same color as the data points. Data points and standard deviation for three independent experiments. e, Numerical stability of the global fitting of the experimental data.

[2] = molecular target: T1, BiP NBD
Description: We next wanted to compare our determined kinetic rates of ADP dissociation, koff2 and koff5 , with a standard assay in the Hsp70 field that measures ADP lifetimes by ADP displacement.
The dissociation rate constants (koff) were determined by fitting the data to a one phase exponential function using a python script. […]
The red line corresponds to the mono-exponential fit of the data. […]
from 0.001 to 10 mM, in the absence of Pi (pink circles) and with 0.5 mM Pi (blue circles). Data points represent the mean for three independent experiments and the error bar represents the standard deviation. The half maximal inhibitory concentration (IC50) of Ca was calculated from three

[3] = Supplementary Fig 10a, time 5 min
[4] = Supplementary Fig 10a, time 11 min
[5] = Supplementary Fig 10a, time 17 min
[6] = Supplementary Fig 10a, time 23 min
[7] = Supplementary Fig 10a, time 29 min
[8] = Supplementary Fig 10a, time 35 min
[9] = Supplementary Fig 10a, time 41 min
[10] = Supplementary Fig 10a, time 47 min
[11] = Supplementary Fig 10a, time 53 min
[12] = Supplementary Fig 10a, time 59 min
[13] = Supplementary Fig 10a, time 65 min
[14] = Supplementary Fig 10a, time 71 min

T1 sequence (P11021 19-406): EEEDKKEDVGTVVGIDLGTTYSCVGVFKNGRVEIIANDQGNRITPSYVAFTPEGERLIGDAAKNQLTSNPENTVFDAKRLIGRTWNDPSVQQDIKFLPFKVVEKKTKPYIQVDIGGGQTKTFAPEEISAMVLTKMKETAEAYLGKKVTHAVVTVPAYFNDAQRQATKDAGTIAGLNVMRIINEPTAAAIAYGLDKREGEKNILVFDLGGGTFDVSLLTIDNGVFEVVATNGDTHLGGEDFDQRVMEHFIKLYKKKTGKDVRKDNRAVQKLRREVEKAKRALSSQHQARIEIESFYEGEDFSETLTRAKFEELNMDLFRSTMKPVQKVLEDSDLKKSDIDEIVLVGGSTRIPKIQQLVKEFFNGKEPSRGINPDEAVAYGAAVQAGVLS

species [1, 3]: 841 µM
species [1, 4]: 1872 µM
species [1, 5]: 3013 µM
species [1, 6]: 4002 µM
species [1, 7]: 4950 µM
species [1, 8]: 5935 µM
species [1, 9]: 6850 µM
species [1, 10]: 7775 µM
species [1, 11]: 8621 µM
species [1, 12]: 9455 µM
species [1, 13]: 10281 µM
species [1, 14]: 11083 µM
species ([1]; Supplementary Fig 10b, time 10 min): 1011 µM
species ([1]; Supplementary Fig 10b, time 16 min): 1602 µM
species ([1]; Supplementary Fig 10b, time 22 min): 2255 µM
species ([1]; Supplementary Fig 10b, time 28 min): 2820 µM
species ([1]; Supplementary Fig 10b, time 34 min): 3384 µM
species ([1]; Supplementary Fig 10b, time 40 min): 3735 µM
species ([1]; Supplementary Fig 10b, time 46 min): 4207 µM
species ([1]; Supplementary Fig 10b, time 52 min): 4544 µM
species ([1]; Supplementary Fig 10b, time 58 min): 4962 µM
species ([1]; Supplementary Fig 10b, time 64 min): 5335 µM
species ([1]; Supplementary Fig 10b, time 70 min): 5727 µM
SMILES: CC(=O)C(=O)O [Pyruvate]

Supplementary Fig 16a time trace signal ([2]; [Ca2+] 0.1 μM, time 148.582 sec): 0.000
Supplementary Fig 16a time trace signal ([2]; [Ca2+] 0.5 μM, time 148.582 sec): 0.000
Supplementary Fig 16a time trace signal ([2]; [Ca2+] 1 μM, time 148.582 sec): 0.000
Supplementary Fig 16a time trace signal ([2]; [Ca2+] 5 μM, time 148.582 sec): 0.000
Supplementary Fig 16a time trace signal ([2]; [Ca2+] 10 μM, time 148.582 sec): 0.000
Supplementary Fig 16a time trace signal ([2]; [Ca2+] 25 μM, time 148.582 sec): 0.000
Supplementary Fig 16a time trace signal ([2]; [Ca2+] 50 μM, time 148.582 sec): 0.000
Supplementary Fig 16a time trace signal ([2]; [Ca2+] 75 μM, time 148.582 sec): 0.002
Supplementary Fig 16a time trace signal ([2]; [Ca2+] 100 μM, time 148.582 sec): 0.000
Supplementary Fig 16a time trace signal ([2]; [Ca2+] 125 μM, time 148.582 sec): 0.000
Supplementary Fig 16a time trace signal ([2]; [Ca2+] 150 μM, time 148.582 sec): 0.005
Supplementary Fig 16a time trace signal ([2]; [Ca2+] 175 μM, time 148.582 sec): 0.003
Supplementary Fig 16a time trace signal ([2]; [Ca2+] 200 μM, time 148.582 sec): 0.000
Supplementary Fig 16a time trace signal ([2]; [Ca2+] 300 μM, time 148.582 sec): 0.003
Supplementary Fig 16a time trace signal ([2]; [Ca2+] 400 μM, time 148.582 sec): 0.002
Supplementary Fig 16a time trace signal ([2]; [Ca2+] 500 μM, time 148.582 sec): 0.002
Supplementary Fig 16a time trace signal ([2]; [Ca2+] 1000 μM, time 148.582 sec): 0.000
Supplementary Fig 16a time trace signal ([2]; [Ca2+] 5000 μM, time 148.582 sec): 0.001
Supplementary Fig 16a time trace signal ([2]; [Pi] 0.5 mM, [Ca2+] 0.1 μM, time 148.846 sec): 0.000
Supplementary Fig 16a time trace signal ([2]; [Pi] 0.5 mM, [Ca2+] 0.5 μM, time 148.846 sec): 0.004
Supplementary Fig 16a time trace signal ([2]; [Pi] 0.5 mM, [Ca2+] 1 μM, time 148.846 sec): 0.005
Supplementary Fig 16a time trace signal ([2]; [Pi] 0.5 mM, [Ca2+] 5 μM, time 148.846 sec): 0.000
Supplementary Fig 16a time trace signal ([2]; [Pi] 0.5 mM, [Ca2+] 10 μM, time 148.846 sec): 0.000
Supplementary Fig 16a time trace signal ([2]; [Pi] 0.5 mM, [Ca2+] 50 μM, time 148.846 sec): 0.004
Supplementary Fig 16a time trace signal ([2]; [Pi] 0.5 mM, [Ca2+] 100 μM, time 148.846 sec): 0.003
Supplementary Fig 16a time trace signal ([2]; [Pi] 0.5 mM, [Ca2+] 500 μM, time 148.846 sec): 0.007
Supplementary Fig 16a time trace signal ([2]; [Pi] 0.5 mM, [Ca2+] 1000 μM, time 148.846 sec): 0.010
Supplementary Fig 16a time trace signal ([2]; [Pi] 0.5 mM, [Ca2+] 5000 μM, time 148.846 sec): 0.000
SMILES: [Ca+2] [Ca2+]

species [1, 3]: 1073 µM
species [1, 4]: 2085 µM
species [1, 5]: 2925 µM
species [1, 6]: 4009 µM
species [1, 7]: 4805 µM
species [1, 8]: 5531 µM
species [1, 9]: 6432 µM
species [1, 10]: 7245 µM
species [1, 11]: 8072 µM
species [1, 12]: 8987 µM
species [1, 13]: 9725 µM
species [1, 14]: 10723 µM
species ([1]; Supplementary Fig 10c, time 5 min): 690 µM
species ([1]; Supplementary Fig 10c, time 11 min): 1328 µM
species ([1]; Supplementary Fig 10c, time 17 min): 1777 µM
species ([1]; Supplementary Fig 10c, time 23 min): 2409 µM
species ([1]; Supplementary Fig 10c, time 29 min): 2838 µM
species ([1]; Supplementary Fig 10c, time 35 min): 3243 µM
species ([1]; Supplementary Fig 10c, time 41 min): 3518 µM
species ([1]; Supplementary Fig 10c, time 47 min): 3730 µM
species ([1]; Supplementary Fig 10c, time 53 min): 3950 µM
SMILES: O=P(O)(O)O[C@H]1O[C@H](CO)[C@@H](O)[C@H](O)[C@H]1O [glucose-1-p]

Source: publication PMC12126525, “Mechanism of ATP hydrolysis in the Hsp70 BiP nucleotide-binding domain” (Nature Communications, 2025)
